Results on 4 compounds are retold here after paper PMC8836147, “Design, Synthesis and Antifungal/Nematicidal Activity of Novel 1,2,4-Oxadiazole Derivatives Containing Amide Fragments” (International Journal of Molecular Sciences, 2022).

In brackets after ≈: the same amount, converted by molar mass.

A short description of one series: MTT cytotoxicity assay. Type of series: cell-based. Particulars: human, L-02 normal liver cells, L-02 cells. On the procedure: The human liver L-02 cells were obtained from the biology laboratory in Key Laboratory of Chemistry for Natural Products of Guizhou Province and Chinese Academy of Sciences (Guiyang, China). The cells were grown in Dulbecco’s Modified Eagle’s Medium (supplemented with 10% (v/v) FBS, 100 U/mL penicillin, and 100 μg/mL streptomycin) at 37 °C in a CO2 incubator (5% CO2 and 95% air, 95% humidity). The effect of some compounds on cell viability was determined with the MTT assay according to the previously published literature. A total of 5000 cells were inoculated in a 96-well plate and three wells of each concentration of test compound were used. A total of 24 h after inoculation, the cells had grown to ~60% confluency, and different concentrations of compounds were added, and then the cells were cultured for 48 h. DMSO was used as the control. A total of 20 μL of MTT solution was added to each well and incubated at 37 °C for 4 h. Formazan crystals were dissolved in 150 μL of DMSO and quantified using a microplate reader (Thermo Scientific, Vario Skan Flash, Shanghai Bio-Gene Technology Co., LTD, Shanghai, China) at 490 nm. The cytotoxicity was calculated according to following formula:Cytotoxicity (%) = [(OCK − OT)/OCK] × 100%(2) where OCK represents the optical density (OD) value of the blank control group, and OT represents the OD value of experimental group.

In series [1] the test system is S. sclerotiorum. In words: In vitro mycelium growth inhibition test. Format: cell-based. Conditions: Sclerotinia sclerotiorum, mycelial growth, mean ± SD of three replicates; for inhibition at 50 µg/mL: 50 μg/mL, read-out: Inhibition Rate (%) S. sclerotiorum; for EC50: read-out: EC50 against S. sclerotiorum. The method, then: (§1) B. cinerea and S. scleotiorum were kindly provided by the Department of Pesticides, College of Plant Protection, Nanjing Agricultural University (Nanjing, China). All compounds were evaluated for mycelium growth inhibition tests against the two plant pathogenic fungi mentioned in previous reports. These two fungi were inoculated on potato dextrose agar (PDA) plates and were grown in biochemical incubators at 25 ± 1 °C for 2–4 days. The new mycelium was used to determine the antifungal activity. The target compounds were dissolved in 100 µL DMF, and they were then added into the PDA media to make the concentration 50 µg/mL. Mycelia dishes of about 5 mm in diameter were cut from the culture medium. Mycelium were picked up with a sterile inoculation needle, and the sample was inoculated in the middle of a PDA plate in a sterile environment. Afterwards, a preliminary screening of fungal activity was performed. […] Each test was carried out three times. The radial growth of the fungal colonies was gauged and recorded when the diameters of the blank control mycelia reached 5.0–5.5 cm. […] The final data were analyzed using SPSS v.25.0 (IBM, New York, NY, USA). The following formula was used to calculate the fungi inhibition rate. Inhibition rate (%) = [(Mycelium diameter of negative control − Mycelium diameter of treatment)/(Mycelium diameter of negative control − 0.5)] × 100%(1)

The next series deals with B. cinerea. In words: In vitro mycelium growth inhibition test. Conditions: Botrytis cinerea; 50 μg/mL; mycelial growth; mean ± SD of three replicates; read-out: Inhibition Rate (%) B. cinerea. Type of series: cell-based. The method, then: as §1
In the next series the test system is M. incognita. Nature of the series: microbe, parasite or virus in culture. Conditions: Meloidogyne incognita, 48 h, read-out: Corrected Mortality Rate ± SD (%) M. incognita. From the text: (§2) M. incognita (parasitic on tomato plants), A. besseyi (potato dextrose agar–Botrytis cinerea breeding), B. xylophilus (potato dextrose agar–Botrytis cinerea breeding), and C. elegans (nematode growth medium–inactivated Escherichia coli OP50 cultivation) were provided by the Fine Chemical Research and Development Center of Guizhou University (Guizhou, China). The methodology used for the nematocidal bioassays of these target compounds was modified in the light of the conventional methods reported in the previously published literature. The nematicidal activity of the target compounds against four nematodes was determined using 48-well biochemical culture dishes. All of the compounds were dissolved with 100 μL DMF and were diluted with 1% Tween-80 to obtain 200 and 50 μg/mL concentrations for the bioassays. Fosthiazate and tioxazafen were used as positive controls at the same concentrations, and a negative control group was prepared without compounds using the same methodology. An amount of 10 µL of nematode suspension (about 50 nematodes) and 300 µL of the trial solution were added to corresponding hole, and each treatment was set to three repetitions. All of the 48-well plates were placed in a biochemical incubator at 27 °C for dark light culture. […] Corrected mortality (%) = [(mortality of treatment % − mortality of negative control %)/(1 − mortality of negative control %)] × 100%(3)

The next series deals with B. xylophilus. Nature of the series: microbe, parasite or virus in culture. Conditions: Bursaphelenchus xylophilus, 48 h, read-out: Corrected Mortality Rate ± SD (%) B. xylophilus.
From the text: as §2

In the next series the test system is A. besseyi. Nature of the series: microbe, parasite or virus in culture. Particulars: Aphelenchoides besseyi, 48 h, read-out: Corrected Mortality Rate ± SD (%) A. besseyi.
From the text: as §2

For a further series, the system named is C. elegans. Nature of the series: microbe, parasite or virus in culture. Conditions: Caenorhabditis elegans, 48 h, read-out: Corrected Mortality Rate ± SD (%) C. elegans.
From the text: as §2

For series [2], the system named is S. sclerotiorum. In words: In vivo protective activity assay on infected cole leaves. Also noted: species or system Sclerotinia sclerotiorum. Particulars: sprayed 24 h before inoculation, 72 h. An excerpt: (§3) Susceptible cole leaves collected from Guizhou Academy of Agricultural Sciences were used to determine the in vivo efficacy of F15 according to previous literature. […] Vaccination time was used to distinguish between the protective activity assays and curative activity assays. A 5 mm mycelia dish was placed at the widest center of the cole leaf, and it was ensured that it was not placed on the main vein of the leaf. For the protective activity assay, test compounds with different concentrations were sprayed on the leaves until the liquid reached the surface. Inoculation was conducted after 24 h. For the curative activity assay, which took place 24 h after inoculation, compounds of different concentrations were sprayed on the surfaces of the leaves until the liquid flowed. Fluopyram and sterile distilled water were used as a positive control and negative control, respectively. All of the inoculated leaves were placed inside of a 25 °C light incubator with 85% relative humidity and a 16 h photoperiod for disease development. The average diameters of the lesions were measured using the cross method after 72 h. The disease control efficacy was obtained through the following formula:Control efficacy (%) = (1 − DT/DCK) × 100%(4) where DCK represents the lesion diameter of the sterile distilled water control, and DT represents the lesion diameters of the treatment samples. Each test was carried out five times, and the experiment was performed three times.

Series [3] has as its system S. sclerotiorum. In words: In vivo curative activity assay on infected cole leaves. Also noted: species or system Sclerotinia sclerotiorum. Conditions: sprayed 24 h after inoculation, 72 h.
From the text: as §3

In general, inhibition refers to the percentage by which the read-out fell short of the control. For orientation: EC50 means the midpoint of the concentration-response curve. As a reminder, the mortality is the percentage killed. Consider `O=C(NCCc1ccccn1)c1nc(-c2ccccc2)no1` [Compound F1, 3-Phenyl-N-(2-(pyridin-2-yl)ethyl)-1,2,4-oxadiazole-5-carboxamide], for which, in “MTT cytotoxicity assay”, the cytotoxicity at 48 h, 50 μg/mL amounted to 4.7 ± 4.9%; the cytotoxicity at 48 h, 100 μg/mL was 10.9 ± 5.9%; the cytotoxicity at 48 h, 200 μg/mL was 15.4 ± 4.4%. For the same compound, in the series with S. sclerotiorum [1], the inhibition at 50 µg/mL was 73.2 ± 0.1% and the EC50 amounted to 20.8 ± 0.8 µg/mL (≈ 70.7 µM). The inhibition at 50 µg/mL in the series with B. cinerea worked out at 24.2 ± 0.2%. Further, in the series on M. incognita, the mortality at 50 µg/mL stood at 6.9 ± 2.1% and the mortality at 200 µg/mL was 43.5 ± 2.3%. Further, in the series with B. xylophilus, the mortality at 50 µg/mL stood at 0% and the mortality at 200 µg/mL worked out at 6.1 ± 1.1%. Further, in the series on A. besseyi, the mortality at 50 µg/mL turned out to be 0% and the mortality at 200 µg/mL stood at 6.9 ± 1.2%. In the series on C. elegans, the mortality at 50 µg/mL is 51.3 ± 2.2% and the mortality at 200 µg/mL turned out to be 88.7 ± 1.3%.
For `O=C(NCCc1ccccn1)c1nc(-c2ccc(Cl)cc2)no1` [Compound F9, 3-(4-chlorophenyl)-N-(2-(pyridin-2-yl)ethyl)-1,2,4-oxadiazole-5-carboxamide], the cytotoxicity at 48 h, 50 μg/mL in “MTT cytotoxicity assay” was -2.5 ± 0.2%. The cytotoxicity at 48 h, 100 μg/mL in the series “MTT cytotoxicity assay” was 7.1 ± 6.5%. In addition, in the series “MTT cytotoxicity assay”, the cytotoxicity at 48 h, 200 μg/mL came out at 31.5 ± 8.7%. In addition, the inhibition at 50 µg/mL in the series with S. sclerotiorum [1] was 61.1 ± 0.7%; in the series with B. cinerea, 26.7 ± 0.5%. The half-maximal effective concentration (EC50) in the series with S. sclerotiorum [1] was 18.7 ± 0.4 µg/mL (≈ 56.9 µM). In addition, the mortality at 50 µg/mL in the series on M. incognita came out at 9.8 ± 2.5%; in the series on B. xylophilus it was 0%; in the series with A. besseyi, 0%; in the series with C. elegans, 62.1 ± 2.2%. Besides, the mortality at 200 µg/mL in the series with M. incognita is 56.3 ± 2.4%; in the series on B. xylophilus, 14.5 ± 2.5%; in the series on A. besseyi it was 12.8 ± 2.3%; with C. elegans it was 87.6 ± 1.1%.
On to `O=C(NCCc1ncc(C(F)(F)F)cc1Cl)c1ccccc1C(F)(F)F` [Fluopyram, fluopyram, reference compound], for which, in “MTT cytotoxicity assay”, the cytotoxicity at 48 h, 50 μg/mL is 3.8 ± 2.5%. Besides, in the series “MTT cytotoxicity assay”, the cytotoxicity at 48 h, 100 μg/mL amounted to 40.1 ± 1.2%. Further, the cytotoxicity at 48 h, 200 μg/mL in “MTT cytotoxicity assay” is 55.1 ± 0.4%. The inhibition at 50 µg/mL is 93.7 ± 1.7% in the series on S. sclerotiorum [1] and 87.3 ± 0.6% in the series with B. cinerea. Moreover, in the series with S. sclerotiorum [1], the EC50 was 1.2 ± 1.6 µg/mL (≈ 3.02 µM). The “Protective Effect Control Efficacy (%)” value in the series with S. sclerotiorum [2] (25 μg/mL) was found to be 66.8%; with S. sclerotiorum [2] (50 μg/mL) it was 69.3%; in the series with S. sclerotiorum [2] (100 μg/mL) it was 75.6%. Also, the “Protective Effect Lesion Length” value was found to be 7.9 ± 0.1 mm with S. sclerotiorum [2] (25 μg/mL), 7.3 ± 0.2 mm in the series with S. sclerotiorum [2] (50 μg/mL) and 5.8± 0.1 mm with S. sclerotiorum [2] (100 μg/mL). Further, the results for the “Curative Effect Control Efficacy (%)” value in the series with S. sclerotiorum [3] (25 μg/mL), in the series with S. sclerotiorum [3] (50 μg/mL) and in the series on S. sclerotiorum [3] (100 μg/mL) were 65.0%, 71.4% and 74.1%, respectively. In addition, the “Curative Effect Lesion Length” value stood at 7.7 ± 0.6 mm with S. sclerotiorum [3] (25 μg/mL), 6.3 ± 0.2 mm in the series with S. sclerotiorum [3] (50 μg/mL) and 5.7 ± 0.6 mm with S. sclerotiorum [3] (100 μg/mL). Also, the mortality at 50 µg/mL with M. incognita, in the series with B. xylophilus, in the series on A. besseyi and in the series on C. elegans was 100% each time. Moreover, the mortality at 200 µg/mL in the series on M. incognita, in the series with B. xylophilus, with A. besseyi and with C. elegans was 100% in each case.
As to `O=C(NCCc1ncc(C(F)(F)F)cc1Cl)c1nc(-c2cccs2)no1` [Compound F14], the cytotoxicity at 48 h, 50 μg/mL in “MTT cytotoxicity assay” turned out to be 18.8 ± 2.5%. The cytotoxicity at 48 h, 100 μg/mL in the series “MTT cytotoxicity assay” turned out to be 21.4 ± 5%. Further, in the series “MTT cytotoxicity assay”, the cytotoxicity at 48 h, 200 μg/mL stood at 39.1 ± 8.4%. The inhibition at 50 µg/mL with S. sclerotiorum [1] was determined as 65.2 ± 0.2%; in the series on B. cinerea, 36.4 ± 0.2%. Further, in the series with S. sclerotiorum [1], the EC50 turned out to be 15.3 ± 1.3 µg/mL (≈ 38 µM). The mortality at 50 µg/mL was found to be 0% in the series with M. incognita, 0% with B. xylophilus, 0% with A. besseyi and 70 ± 0.6% in the series with C. elegans. Also, the mortality at 200 µg/mL in the series on M. incognita is 12.3 ± 2.3%; in the series on B. xylophilus, 6.9 ± 1.8%; in the series with A. besseyi, 27 ± 0.8%; with C. elegans, 100%.
